Laboratory results: patent US10835506B2, “Treatment and prevention of muscle loss using L-ornithine in combination with at least one of phenylacetate and phenylbutyrate” (OCERA THERAPEUTICS, INC., priority 2015, dated 2020)

Test system: Fisher 344×Brown Norway (FBN) rat
Test: Treatment of sarcopenia (age-related muscle loss) in FBN hybrid rats
Assay type: in vivo
Settings: middle age and/or old FBN hybrid rats; OP administered e.g. orally
Protocol: The Fisher 344×Brown Norway (FBN) rat model has been recommended by the National Institute on Aging (NIA) for age-related research. […] Significant muscle mass loss, a reduction in muscle CSA, and muscle fiber loss are expected in, for example, the quadriceps muscles of the aged rat.
OP is administered, for example orally, to young, middle age, and old FBN hybrid rats.

## L-ornithine phenylacetate [OP]
  muscle mass loss: effective in reducing muscle mass loss
